How the values were obtained:
[1] = target: Vascular endothelial growth factor receptor 1 (Homo sapiens, UniProt P17948); assay: Inhibition of Flt1(unknown origin) after 60 mins by TR-FRET assay
[2] = target: Tyrosine-protein kinase BTK (Homo sapiens, UniProt Q06187); assay: Inhibition of BTK (unknown origin) after 60 mins by TR-FRET assay
[3] = target: NT-3 growth factor receptor (Homo sapiens, UniProt Q16288); assay: Inhibition of TrkC (unknown origin) after 60 mins by TR-FRET assay
[4] = target: T1, Serine/threonine-protein kinase TAO2 (Homo sapiens, UniProt Q9UL54); assay: Inhibition of TAOK2 (unknown origin) after 60 mins by TR-FRET assay
T1 sequence (Q9UL54 whole entry): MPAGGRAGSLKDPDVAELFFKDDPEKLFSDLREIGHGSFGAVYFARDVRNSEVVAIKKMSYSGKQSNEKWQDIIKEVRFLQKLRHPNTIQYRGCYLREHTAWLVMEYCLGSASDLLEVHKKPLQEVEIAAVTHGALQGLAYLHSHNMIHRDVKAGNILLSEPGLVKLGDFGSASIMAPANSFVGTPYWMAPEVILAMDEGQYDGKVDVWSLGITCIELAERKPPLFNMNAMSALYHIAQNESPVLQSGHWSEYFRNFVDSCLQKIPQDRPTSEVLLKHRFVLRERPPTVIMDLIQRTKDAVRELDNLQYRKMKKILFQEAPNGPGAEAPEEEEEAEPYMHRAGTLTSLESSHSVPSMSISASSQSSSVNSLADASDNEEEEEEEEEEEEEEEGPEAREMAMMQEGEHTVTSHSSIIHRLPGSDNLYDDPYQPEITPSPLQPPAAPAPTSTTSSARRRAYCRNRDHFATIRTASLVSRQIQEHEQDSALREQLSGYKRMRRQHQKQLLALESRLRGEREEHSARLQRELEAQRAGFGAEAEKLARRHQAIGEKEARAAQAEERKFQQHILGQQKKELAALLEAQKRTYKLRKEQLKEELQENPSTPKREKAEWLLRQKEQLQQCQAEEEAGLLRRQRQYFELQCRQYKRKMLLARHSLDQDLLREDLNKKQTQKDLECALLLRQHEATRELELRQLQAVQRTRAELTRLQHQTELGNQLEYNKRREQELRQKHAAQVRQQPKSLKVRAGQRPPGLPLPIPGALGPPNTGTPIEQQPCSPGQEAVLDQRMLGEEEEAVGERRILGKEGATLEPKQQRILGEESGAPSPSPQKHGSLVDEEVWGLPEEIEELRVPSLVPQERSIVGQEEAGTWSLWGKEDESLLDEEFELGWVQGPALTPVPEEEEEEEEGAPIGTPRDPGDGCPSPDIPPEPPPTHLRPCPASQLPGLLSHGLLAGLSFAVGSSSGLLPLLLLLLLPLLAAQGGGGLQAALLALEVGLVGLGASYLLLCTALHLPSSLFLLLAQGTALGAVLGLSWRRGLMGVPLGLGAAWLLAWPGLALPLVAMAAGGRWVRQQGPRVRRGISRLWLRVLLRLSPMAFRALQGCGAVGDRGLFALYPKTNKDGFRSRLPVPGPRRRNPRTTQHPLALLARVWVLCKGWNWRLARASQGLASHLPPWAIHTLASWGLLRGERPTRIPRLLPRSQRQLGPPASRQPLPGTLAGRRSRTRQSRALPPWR

[5] = target: Mitogen-activated protein kinase kinase kinase kinase 4 (Homo sapiens, UniProt O95819); assay: Inhibition of MAP4K4 (unknown origin) after 60 mins by TR-FRET assay
[6] = target: Glycogen synthase kinase-3 beta (Homo sapiens, UniProt P49841); assay: Inhibition of GSK3B (unknown origin) after 60 mins by TR-FRET assay
[7] = target: Serine/threonine-protein kinase PAK 4 (Homo sapiens, UniProt O96013); assay: Inhibition of PAK4 kinase domain (unknown origin) after 60 mins by TR-FRET assay
Activated CDC42 kinase 1 = Activated CDC42 kinase 1 (Homo sapiens, UniProt Q07912); assay: Inhibition of TNK2 (unknown origin) after 60 mins by TR-FRET assay
Aurora kinase B = Aurora kinase B (Homo sapiens, UniProt Q96GD4); assay: Inhibition of AURKB (unknown origin) after 60 mins by TR-FRET assay
[8] = Inhibition of PKA (unknown origin) after 60 mins by TR-FRET assay
[9] = target: Mitogen-activated protein kinase 8 (Homo sapiens, UniProt P45983); assay: Inhibition of JNK1 (unknown origin) after 60 mins by TR-FRET assay
[10] = target: Cyclin-dependent kinase 9 (Homo sapiens, UniProt P50750); assay: Inhibition of CDK9 (unknown origin) after 60 mins by TR-FRET assay
[11] = target: Insulin-like growth factor 1 receptor (Homo sapiens, UniProt P08069); assay: Inhibition of IGF1R (unknown origin) after 60 mins by TR-FRET assay
[12] = target: Death-associated protein kinase 3 (Homo sapiens, UniProt O43293); assay: Inhibition of ZIPK (unknown origin) after 60 mins by TR-FRET assay
[13] = target: Rho-associated protein kinase 1 (Homo sapiens, UniProt Q13464); assay: Inhibition of ROCK1(unknown origin) after 60 mins by TR-FRET assay
Aurora kinase A = target: T2, Aurora kinase A (Homo sapiens, UniProt O14965); assay: Inhibition of AURKA (unknown origin) after 60 mins by TR-FRET assay
T2 sequence (O14965 whole entry): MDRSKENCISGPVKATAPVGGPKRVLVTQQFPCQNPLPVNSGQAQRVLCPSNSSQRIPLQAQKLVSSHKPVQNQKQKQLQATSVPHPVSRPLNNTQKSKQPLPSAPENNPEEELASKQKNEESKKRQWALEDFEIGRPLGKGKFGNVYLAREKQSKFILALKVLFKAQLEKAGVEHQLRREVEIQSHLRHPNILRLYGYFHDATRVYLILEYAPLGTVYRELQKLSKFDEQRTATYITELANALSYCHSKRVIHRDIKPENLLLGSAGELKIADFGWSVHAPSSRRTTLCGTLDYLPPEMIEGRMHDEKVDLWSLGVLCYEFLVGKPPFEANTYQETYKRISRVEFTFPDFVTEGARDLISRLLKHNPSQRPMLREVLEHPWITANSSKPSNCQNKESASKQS

[14] = target: Serine/threonine-protein kinase pim-1 (Homo sapiens, UniProt P11309); assay: Inhibition of PIM1 (unknown origin) after 60 mins by TR-FRET assay
[15] = target: Cyclin-dependent kinase 7 (Homo sapiens, UniProt P50613); assay: Inhibition of CDK7 (unknown origin) after 60 mins by TR-FRET assay
[16] = target: Hepatocyte growth factor receptor (Homo sapiens, UniProt P08581); assay: Inhibition of c-MET (unknown origin) after 60 mins by TR-FRET assay
[17] = target: Tyrosine-protein kinase Lck (Homo sapiens, UniProt P06239); assay: Inhibition of Lck (unknown origin) after 60 mins by TR-FRET assay
Tyrosine-protein kinase Lck, sequence (P06239 whole entry): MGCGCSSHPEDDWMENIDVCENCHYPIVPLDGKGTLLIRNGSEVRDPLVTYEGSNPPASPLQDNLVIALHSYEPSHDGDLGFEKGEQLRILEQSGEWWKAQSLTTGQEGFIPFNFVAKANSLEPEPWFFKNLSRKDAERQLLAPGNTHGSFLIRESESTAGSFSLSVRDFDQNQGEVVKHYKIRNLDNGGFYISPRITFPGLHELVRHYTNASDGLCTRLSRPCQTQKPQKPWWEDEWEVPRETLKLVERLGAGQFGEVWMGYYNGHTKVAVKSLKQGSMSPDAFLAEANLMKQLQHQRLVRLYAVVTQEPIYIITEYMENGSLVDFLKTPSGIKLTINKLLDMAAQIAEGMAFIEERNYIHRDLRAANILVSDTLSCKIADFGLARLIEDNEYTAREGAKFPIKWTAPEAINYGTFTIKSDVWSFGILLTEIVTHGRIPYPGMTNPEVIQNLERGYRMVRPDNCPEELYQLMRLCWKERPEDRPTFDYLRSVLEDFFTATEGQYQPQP

Aurora kinase B, sequence (Q96GD4 whole entry): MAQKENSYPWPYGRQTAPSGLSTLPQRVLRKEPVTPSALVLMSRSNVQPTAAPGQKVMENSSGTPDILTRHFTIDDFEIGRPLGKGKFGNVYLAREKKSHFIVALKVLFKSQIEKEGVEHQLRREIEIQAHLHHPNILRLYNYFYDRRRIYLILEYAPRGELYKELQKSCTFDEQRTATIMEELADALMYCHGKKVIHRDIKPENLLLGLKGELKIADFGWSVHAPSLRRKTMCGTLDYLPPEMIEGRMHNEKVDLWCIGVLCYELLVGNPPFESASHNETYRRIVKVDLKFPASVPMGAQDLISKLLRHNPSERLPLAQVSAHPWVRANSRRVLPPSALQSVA
Tyrosine-protein kinase BTK, sequence (Q06187 whole entry): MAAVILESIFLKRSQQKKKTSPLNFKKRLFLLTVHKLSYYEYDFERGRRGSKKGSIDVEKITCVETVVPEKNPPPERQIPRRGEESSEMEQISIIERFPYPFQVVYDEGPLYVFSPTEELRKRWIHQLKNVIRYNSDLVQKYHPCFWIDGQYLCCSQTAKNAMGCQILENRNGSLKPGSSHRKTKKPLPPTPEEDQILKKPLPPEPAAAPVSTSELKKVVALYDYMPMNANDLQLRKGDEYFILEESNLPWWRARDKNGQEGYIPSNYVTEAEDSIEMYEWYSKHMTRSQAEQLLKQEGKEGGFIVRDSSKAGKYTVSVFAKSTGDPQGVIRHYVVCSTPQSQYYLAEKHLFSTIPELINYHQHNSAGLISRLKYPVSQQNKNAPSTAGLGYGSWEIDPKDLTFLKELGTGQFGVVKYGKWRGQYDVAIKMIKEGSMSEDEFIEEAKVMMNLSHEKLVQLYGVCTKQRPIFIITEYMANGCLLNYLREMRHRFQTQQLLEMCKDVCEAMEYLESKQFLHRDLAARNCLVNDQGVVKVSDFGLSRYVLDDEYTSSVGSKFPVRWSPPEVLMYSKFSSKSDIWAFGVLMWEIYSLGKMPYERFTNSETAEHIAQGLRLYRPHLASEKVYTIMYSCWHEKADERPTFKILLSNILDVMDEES
Death-associated protein kinase 3, sequence (O43293 whole entry): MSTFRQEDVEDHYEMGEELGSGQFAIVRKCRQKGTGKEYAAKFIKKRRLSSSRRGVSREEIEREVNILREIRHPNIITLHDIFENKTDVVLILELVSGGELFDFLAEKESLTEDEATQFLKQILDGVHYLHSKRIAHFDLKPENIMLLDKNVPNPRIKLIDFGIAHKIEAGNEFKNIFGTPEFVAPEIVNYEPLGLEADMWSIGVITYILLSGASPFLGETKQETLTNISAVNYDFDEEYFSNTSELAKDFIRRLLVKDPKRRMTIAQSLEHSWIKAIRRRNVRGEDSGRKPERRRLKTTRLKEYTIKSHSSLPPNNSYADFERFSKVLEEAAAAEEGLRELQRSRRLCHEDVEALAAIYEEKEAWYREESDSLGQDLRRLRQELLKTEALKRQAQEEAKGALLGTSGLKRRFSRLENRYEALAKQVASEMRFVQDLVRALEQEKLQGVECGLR
Serine/threonine-protein kinase pim-1, sequence (P11309 whole entry): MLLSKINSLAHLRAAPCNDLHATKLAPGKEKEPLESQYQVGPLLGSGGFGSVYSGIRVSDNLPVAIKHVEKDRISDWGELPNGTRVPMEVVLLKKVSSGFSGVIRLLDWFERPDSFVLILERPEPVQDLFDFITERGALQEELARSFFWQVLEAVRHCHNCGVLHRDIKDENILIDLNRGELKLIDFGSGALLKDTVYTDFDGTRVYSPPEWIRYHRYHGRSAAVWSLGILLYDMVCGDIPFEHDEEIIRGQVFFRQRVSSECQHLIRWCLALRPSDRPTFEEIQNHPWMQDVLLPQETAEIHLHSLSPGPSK
Mitogen-activated protein kinase kinase kinase kinase 4, sequence (O95819 whole entry): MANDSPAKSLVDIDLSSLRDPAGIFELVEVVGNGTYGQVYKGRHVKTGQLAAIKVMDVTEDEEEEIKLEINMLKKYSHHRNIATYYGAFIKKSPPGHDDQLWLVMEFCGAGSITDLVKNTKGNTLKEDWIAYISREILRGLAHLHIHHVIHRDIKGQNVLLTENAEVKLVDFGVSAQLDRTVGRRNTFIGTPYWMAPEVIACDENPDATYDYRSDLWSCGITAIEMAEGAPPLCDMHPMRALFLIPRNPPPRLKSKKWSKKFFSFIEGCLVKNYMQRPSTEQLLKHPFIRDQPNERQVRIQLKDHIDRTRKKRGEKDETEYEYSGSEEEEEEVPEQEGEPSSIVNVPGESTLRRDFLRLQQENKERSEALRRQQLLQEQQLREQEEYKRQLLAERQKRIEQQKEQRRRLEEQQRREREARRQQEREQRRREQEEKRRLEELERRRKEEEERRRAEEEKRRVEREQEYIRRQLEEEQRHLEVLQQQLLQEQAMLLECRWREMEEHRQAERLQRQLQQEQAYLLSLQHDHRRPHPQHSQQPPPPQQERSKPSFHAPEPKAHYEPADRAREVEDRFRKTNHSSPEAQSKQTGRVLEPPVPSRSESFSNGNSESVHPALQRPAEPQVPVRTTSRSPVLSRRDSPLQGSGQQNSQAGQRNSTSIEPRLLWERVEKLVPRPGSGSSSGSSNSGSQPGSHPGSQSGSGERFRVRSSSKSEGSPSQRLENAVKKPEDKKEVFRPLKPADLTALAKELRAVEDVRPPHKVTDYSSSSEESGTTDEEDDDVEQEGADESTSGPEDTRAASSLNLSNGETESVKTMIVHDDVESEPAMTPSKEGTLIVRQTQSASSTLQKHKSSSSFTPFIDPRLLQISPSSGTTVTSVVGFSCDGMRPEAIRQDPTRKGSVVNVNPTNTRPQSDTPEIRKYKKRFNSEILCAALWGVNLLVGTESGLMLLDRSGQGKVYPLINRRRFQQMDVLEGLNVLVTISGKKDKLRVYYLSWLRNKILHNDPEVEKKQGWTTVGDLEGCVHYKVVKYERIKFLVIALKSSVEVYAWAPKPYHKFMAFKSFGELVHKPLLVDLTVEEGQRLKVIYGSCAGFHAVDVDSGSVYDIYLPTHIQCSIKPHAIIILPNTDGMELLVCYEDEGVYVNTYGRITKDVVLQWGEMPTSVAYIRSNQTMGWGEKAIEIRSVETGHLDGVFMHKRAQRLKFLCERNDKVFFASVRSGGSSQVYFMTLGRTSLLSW
NT-3 growth factor receptor, sequence (Q16288 whole entry): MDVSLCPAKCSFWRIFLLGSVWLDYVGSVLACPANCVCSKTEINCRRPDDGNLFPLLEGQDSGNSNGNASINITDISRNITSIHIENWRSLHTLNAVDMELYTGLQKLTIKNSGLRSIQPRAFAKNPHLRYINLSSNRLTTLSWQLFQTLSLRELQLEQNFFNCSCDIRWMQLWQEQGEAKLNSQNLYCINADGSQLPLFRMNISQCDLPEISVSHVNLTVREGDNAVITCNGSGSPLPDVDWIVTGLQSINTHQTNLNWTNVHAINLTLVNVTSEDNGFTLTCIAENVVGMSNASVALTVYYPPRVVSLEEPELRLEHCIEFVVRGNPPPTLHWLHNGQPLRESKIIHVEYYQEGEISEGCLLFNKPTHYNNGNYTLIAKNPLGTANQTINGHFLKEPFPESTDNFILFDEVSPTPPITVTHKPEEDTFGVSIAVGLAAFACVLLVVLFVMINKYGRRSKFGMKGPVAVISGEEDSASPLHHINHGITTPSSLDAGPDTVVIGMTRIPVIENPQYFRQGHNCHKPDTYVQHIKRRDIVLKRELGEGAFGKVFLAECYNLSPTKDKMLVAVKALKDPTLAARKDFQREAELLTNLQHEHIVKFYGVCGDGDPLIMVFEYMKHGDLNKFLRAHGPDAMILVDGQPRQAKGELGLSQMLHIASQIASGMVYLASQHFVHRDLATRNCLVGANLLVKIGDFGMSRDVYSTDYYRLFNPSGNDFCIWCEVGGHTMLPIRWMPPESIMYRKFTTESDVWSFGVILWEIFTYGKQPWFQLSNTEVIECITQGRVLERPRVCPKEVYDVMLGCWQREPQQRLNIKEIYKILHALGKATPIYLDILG
Serine/threonine-protein kinase PAK 4, sequence (O96013 whole entry, the tested form may be a part): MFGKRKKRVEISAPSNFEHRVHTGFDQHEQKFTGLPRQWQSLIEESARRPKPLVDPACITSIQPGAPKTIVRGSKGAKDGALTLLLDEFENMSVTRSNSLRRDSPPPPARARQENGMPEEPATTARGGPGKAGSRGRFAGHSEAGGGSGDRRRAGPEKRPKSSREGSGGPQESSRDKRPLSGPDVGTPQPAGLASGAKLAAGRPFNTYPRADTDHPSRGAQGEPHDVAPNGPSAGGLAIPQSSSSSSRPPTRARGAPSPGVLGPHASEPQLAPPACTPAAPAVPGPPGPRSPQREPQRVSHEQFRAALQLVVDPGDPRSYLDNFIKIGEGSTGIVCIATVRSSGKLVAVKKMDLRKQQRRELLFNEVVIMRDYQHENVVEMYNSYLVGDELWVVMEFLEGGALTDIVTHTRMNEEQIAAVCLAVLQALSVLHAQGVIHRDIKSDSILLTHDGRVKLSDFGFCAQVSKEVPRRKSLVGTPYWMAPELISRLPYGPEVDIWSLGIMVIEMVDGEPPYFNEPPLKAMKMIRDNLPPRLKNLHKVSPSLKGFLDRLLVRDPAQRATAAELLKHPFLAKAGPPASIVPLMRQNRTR

Row | SMILES | IC50 [1] [µM] | IC50 [2] [µM] | IC50 [3] [µM] | IC50 [4] [µM] | IC50 [5] [µM] | IC50 [6] [µM] | IC50 [7] [µM] | IC50 (Activated CDC42 kinase 1) [µM] | IC50 (Aurora kinase B) [µM] | IC50 [8] [µM] | IC50 [9] [µM] | IC50 [10] [µM] | IC50 [11] [µM] | IC50 [12] [µM] | IC50 [13] [µM] | IC50 (Aurora kinase A) [µM] | IC50 [14] [µM] | IC50 [15] [µM] | IC50 [16] [µM] | IC50 [17] [µM]
1 | Cc1n[nH]c2cc(Nc3nc(NC4CC4)c4occc4n3)ccc12 | > 10 | > 10 | > 10 | > 10 | 9.43 | > 10 | 6.79 | 1.32 | > 10 | > 10 | 2.75 | > 10 | > 10 | 4.98 | > 10 | > 10 | > 10 | > 10 | > 10 | –
2 | FC(F)(F)CNc1nc(Nc2ccc3cn[nH]c3c2)nc2ccoc12 | > 10 | > 10 | > 10 | > 10 | > 10 | > 10 | 6.44 | 3.46 | > 10 | > 10 | 2.89 | > 10 | > 10 | – | 8.61 | > 10 | 1.36 | > 10 | > 10 | 7.79
3 | CC1(C)OCC(=O)Nc2cc(Nc3nc(NCC(F)(F)F)c4occc4n3)ccc21 | 9.13 | 5.02 | 7.7 | 8.52 | > 10 | > 10 | > 10 | 1.33 | > 10 | > 10 | 2.67 | > 10 | 6.02 | > 10 | 5.78 | 4.05 | > 10 | > 10 | > 10 | 0.699
4 | FC(F)(F)CNc1nc(Nc2ccc(N3CCOCC3)c(Cl)c2)nc2ccoc12 | > 10 | > 10 | > 10 | > 10 | > 10 | > 10 | > 10 | 4.02 | > 10 | > 10 | 0.513 | > 10 | > 10 | > 10 | > 10 | > 10 | > 10 | > 10 | > 10 | 3.7
